From patent US20190290650A1, “FORMULATIONS/COMPOSITIONS COMPRISING A BTK INHIBITOR” (Janssen Pharmaceutic NV, priority 2016, published 2019)
Like-named read-outs stand apart in the source and are kept apart here.

Assays:
[1] = general statement, no test described; cited from earlier work
OCI-Ly10 = test: Growth inhibition of OCI-Ly10 (ABC-DLBCL) cells; type: cell-based; settings: Homo sapiens
From the text: See U.S. Pat. No. 7,711,492 and Staudt et al., Nature, Vol. 463, Jan. 7, 2010, pp. 88-92, the contents of which are incorporated by reference in their entirety.

- EC50 (OCI-Ly10; continuous exposure, read-out: EC50 continuous exposure (growth of OCI-Ly10)): 10 nM
- EC50 (OCI-Ly10; read-out: EC50 1 hour pulse (growth of OCI-Ly10), 1 hour pulse): 50 nM
SMILES: C=CC(=O)N1CCC[C@@H](n2nc(-c3ccc(Oc4ccccc4)cc3)c3c(N)ncnc32)C1 [Compound 1, 1-((R)-3-(4-amino-3-(4-phenoxyphenyl)-1H-pyrazolo[3,4-d]pyrimidin-1-yl)piperidin-1-yl)prop-2-en-1-one]
- Water solubility [1]: very low water solubility
